# Entries after “also recorded” stand apart in the source; their conditions may differ.
# How the values were obtained:
# [1] = system: C. accolens; test: Planktonic growth of nasal clinical isolates (OD 595 nm, 24 h); format: cell-based; settings: NB and BHI
# Description: (§1) The effect of glycerol on bacterial growth was determined by analysis of nasal bacterial isolates from subjects participating in the trial described in Example 3. The bacterial isolates were cultured for 24 hours in Nutrient Broth (NB) and Brain-Heart Infusion (BHI) which further contained glycerol in an amount of either 20% v/v, or 40% v/v, or 0% glycerol (control).
# (§2) A total of 22 nasal clinical isolates including C. accolens (n=4), C. propinquum(n=3), C. pseudodiptheriticum (n=3), S. epidermidis (n=4), S. aureus (n=4) and P. aeruginosa (n=4) were used in this experiment. Prior to starting experiments, isolates were grown in tryptic soya agar (TSA) and incubated at 37° C. under aerobic conditions for 24 hours, except for C. accolens which was incubated for 48 hours.
# (§3) Glycerol at 20% was prepared by dilution in nutrient broth (NB) media. Glycerol treatments at 20% concentrations were prepared in a 96-well microtitration plate containing 50 μL NB. A single colony of bacterial isolates such as C. accolens, C. propinquum, C. pseudodiptheriticum, S. epidermidis, S. aureus and P. aeruginosa from overnight cultures was suspended with 0.9% saline (aqueous NaCl) to McFarland standard of 0.5 and diluted 1:100 in NB growth media. Next, 50 μL of the diluted bacterial suspension was then added to the treatments in each well and incubated aerobically for 24 hours at 37° C. A negative control (media without bacteria and treatment) and untreated growth control (media with bacteria but no treatment) were used in this assay. After incubation, the planktonic bacterial growth was determined by measuring the optical density (OD) at 595 nm using microplate absorbance reader (iMark™, BIO-RAD). For each bacterial strain, six replicate experiments were performed to assess bacterial growth.
# [2] = system: P. aeruginosa; test: as above; format: cell-based
# Description: as §1, §2, §3
# [3] = system: S. aureus; test: as above; format: cell-based
# Description: as §1, §2, §3
# [4] = system: C. propinquum; test: as above; format: cell-based, Corynebacterium propinquum
# Description: as §1, §2
# Glycerol at 20% was prepared by dilution in nutrient broth (NB) media. Glycerol treatments at 20% concentrations were prepared in a 96-well microtitration plate containing 50 μL NB. A single colony of bacterial isolates such as C. accolens, C. propinquum, C. pseudodiptheriticum, S. epidermidis, S. aureus and P. aeruginosa from overnight cultures was suspended with 0.9% saline (aqueous NaCl) to McFarland standard of 0.5 and diluted 1:100 in NB growth media. […] After incubation, the planktonic bacterial growth was determined by measuring the optical density (OD) at 595 nm using microplate absorbance reader (iMark™, BIO-RAD). […]
# [5] = system: C. pseudodiphtheriticum; test: as above; format: cell-based, Corynebacterium pseudodiphtheriticum
# Description: as §1, §2, §3
# [6] = system: S. epidermidis; test: as above; format: cell-based, Staphylococcus epidermidis
# Description: as §1, §2, §3
# [7] = system: commensal and pathogenic bacterial isolates; test: Planktonic growth of nasal clinical isolates (OD 595 nm, 24 h), all isolates; format: cell-based
# Description: as §1, §2, §3
# [8] = system: C. acnes; test: Cellulose disk on nutrient agar survival test (Example 5); format: cell-based; settings: 48 hours incubation, anaerobic; glycerol as 20% in water
# From the text: The growth of C. acnes in the presence of glycerol, chitosan-dextran polymer (CS-DA), and a combination of glycerol and chitosan-dextran polymer (CS-DA-GLY) was investigated according to the following methodology: • Cellulose disks (approximately 1 cm in diameter) pre-soaked in C. acnes culture were placed on the surface of sterile nutrient agar plates. A test substance was placed on top of the soaked disks to allow contact with both the nutrient agar and a test substance. An untreated control agar plate contained only the soaked cellulose disk, with no test substance applied. The test substances were: (1) 20% glycerol in water; (2) a composition comprising aldehyde-derivatised dextran polymer cross linked with N-succinyl chitosan polymer, an aqueous phosphate buffer and approximately 20% v/v glycerol, prepared according to the description above in Example 2 (herein referred to as CS-DA-GLY); and (3) a composition comprising aldehyde-derivatised dextran polymer cross linked with N-succinyl chitosan polymer, and an aqueous phosphate buffer (herein referred to as CS-DA). That is, the composition of test substances (2) and (3) differ only in the presence and absence of glycerol. […] Following incubation for 112 hours 5 minutes at conditions appropriate for the microorganism, the surviving test microorganisms were recorded for each test and control plate.
# [9] = system: S. aureus; test: Cellulose disk on nutrient agar survival test (Example 6); format: cell-based; settings: 48 h aerobic
# From the text: (§4) The growth of S. aureus and P. aeruginosa in the presence of glycerol, chitosan-dextran polymer, or a combination of glycerol and chitosan-dextran polymer, was investigated according to the following methodology: • (A) Cellulose disks (approximately 1 cm in diameter) pre-soaked in S. aureus or P. aeruginosa cultures were placed on the surface of sterile nutrient agar plates. A test substance was placed on top of the soaked disks to allow contact with both the nutrient agar and a test substance. An untreated control agar plate contained only the soaked cellulose disk, with no test substance applied. The test substances were as described in Example 5, namely: (1) 20% v/v glycerol in water; (2) CS-DA-GLY; and (3) CS-DA. All test and control cellulose disk plates were incubated for 48±1 hours at conditions appropriate for each microorganism (e.g. aerobic conditions for S. aureus and P. aeruginosa, and anaerobic conditions for C. acnes). Following incubation, the cellulose disks were each aseptically removed from the agar surface and the microorganism contents of the cellulose disks were individually extracted using sterile phosphate-buffered saline solution. Each of the resulting microorganism suspensions were serially diluted 1:10 in sterile phosphate-buffered saline solution and 1.000 mL of the appropriate dilutions were plated in singlet to sterile growth media appropriate for the target test microorganism. Following incubation for 72 hours 40 minutes at conditions appropriate for each microorganism, the surviving test microorganisms were recorded for each test and control plate. • (B) The same methodology as (A) was performed, but the cellulose disk plates additionally included the supernatant of a C. acnes culture that was grown on a substrate comprising 20% glycerol. […]
# [10] = system: P. aeruginosa; test: as above; format: cell-based; settings: 48 h aerobic
# From the text: as §4, with “Following incubation, the cellulose disks were each aseptically removed from the agar surface and the microorganism contents of the cellulose disks were individually extracted using sterile phosphate-buffered saline solution. Each of the resulting microorganism suspensions were serially diluted 1:10 in sterile phosphate-buffered saline solution and 1.000 mL of the appropriate dilutions were plated in singlet to sterile growth media appropriate for the target test microorganism.” left out
# [11] = 20% glycerol, Nutrient Broth, 24 hours
# [12] = 20% v/v glycerol, media (NB and BHI)
# [13] = test set A, no C. acnes supernatant, glycerol as 20% v/v in water
smiles,measurement,setting,value
OCC(O)CO [glycerol],growth of C. accolens compared to control,[1]; 20% v/v glycerol,either unaffected or promoted
same,growth of C. accolens,[1]; 40% v/v glycerol,significant inhibitory effect
same,planktonic growth of P. aeruginosa vs untreated growth control,[2]; [11],significantly inhibit; also recorded: significantly reduced
same,growth of P. aeruginosa compared to control,[2]; [12],inhibited
same,growth of P. aeruginosa,"[2]; 40% v/v glycerol, NB and BHI",significant inhibitory effect
same,planktonic growth of S. aureus vs untreated growth control,[3]; [11],significantly reduced; also recorded: significantly inhibit
same,growth of S. aureus compared to control,[3]; [12],inhibited
same,growth of S. aureus,"[3]; 40% v/v glycerol, NB and BHI",significant inhibitory effect
same,growth of C. propinquum compared to control,[4]; [12],inhibited
same,growth of C. propinquum,"[4]; 40% v/v glycerol, NB and BHI",significant inhibitory effect
same,planktonic growth of C. pseudodiphtheriticum vs untreated growth control,[5]; [11],significantly inhibit; also recorded: significantly reduced
same,growth of C. pseudodiphtheriticum compared to control,[5]; [12],inhibited
same,growth of C. pseudodiphtheriticum,"[5]; 40% v/v glycerol, NB and BHI",significant inhibitory effect
same,planktonic growth of S. epidermidis vs untreated growth control,[6]; [11],significantly inhibit; also recorded: significantly reduced
same,growth of S. epidermidis compared to control,[6]; [12],inhibited
same,growth of S. epidermidis,"[6]; 40% v/v glycerol, NB and BHI",significant inhibitory effect
same,growth of commensal and pathogenic bacterial isolates,"[7]; 20% glycerol, BHI broth",significantly inhibit
same,growth of commensal and pathogenic bacterial isolates,"[7]; 40% glycerol, BHI broth",significantly inhibit
same,growth of commensal and pathogenic bacterial isolates,"[7]; 40% glycerol, NB",significantly inhibit
same,growth (percent survival) of C. acnes compared to untreated control,[8],supported
same,growth of S. aureus compared to control,[9]; [13],decrease
same,growth of S. aureus compared to control,"[9]; test set B, comprising C. acnes supernatant (method b251: culture grown on 20% glycerol substrate)",decrease
same,growth of S. aureus compared to control,"[9]; test set C, comprising C. acnes supernatant (method b251: glycerol-free substrate; b254: grown in the presence of glycerol)",decrease
same,growth of P. aeruginosa compared to control,[10]; [13],decrease
same,growth of P. aeruginosa compared to control,"[10]; test set C, with C. acnes supernatant (grown in the presence of glycerol)",much more substantial decrease; also recorded: reduction

# Source: patent publication US20240366524A1, “COMPOSITION AND METHOD FOR TREATING OR PREVENTING INFECTIONS” (CHITOGEL LIMITED, priority 2021, published 2024)
